Reference: PubChem BioAssay (NCI)
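GI50 is the concentration that inhibits growth by half. Definition used: TGI = concentration required for complete inhibition of growth.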

Experiments:
Assay in all cases: NCI anticancer screen, dose series, 384-well format
786-0 renal = tested on: 786-0 renal
A498 renal = tested on: A498 renal
A549 NSCLC = tested on: A549 NSCLC
ACHN renal = tested on: ACHN renal
BT-549 breast = tested on: BT-549 breast
CAKI-1 renal = tested on: CAKI-1 renal
CCRF-CEM leukemia = tested on: CCRF-CEM leukemia
COLO 205 colon = tested on: COLO 205 colon
DU-145 prostate = tested on: DU-145 prostate
EKVX NSCLC = tested on: EKVX NSCLC
HCC-2998 colon = tested on: HCC-2998 colon
HCT-15 colon = tested on: HCT-15 colon
HL-60(TB) leukemia = tested on: HL-60(TB) leukemia
HOP-62 NSCLC = tested on: HOP-62 NSCLC
HOP-92 NSCLC = tested on: HOP-92 NSCLC
HS 578T breast = tested on: HS 578T breast
HT29 colon = tested on: HT29 colon
IGROV1 ovarian = tested on: IGROV1 ovarian
KM12 colon = tested on: KM12 colon
M14 melanoma = tested on: M14 melanoma
MALME-3M melanoma = tested on: MALME-3M melanoma
MCF7 breast = tested on: MCF7 breast
MDA-MB-231 breast = tested on: MDA-MB-231 breast
MDA-MB-435 melanoma = tested on: MDA-MB-435 melanoma
MDA-MB-468 breast = tested on: MDA-MB-468 breast
MOLT-4 leukemia = tested on: MOLT-4 leukemia
NCI-H226 lung = tested on: NCI-H226 lung
NCI-H23 lung = tested on: NCI-H23 lung
NCI-H322M lung = tested on: NCI-H322M lung
NCI-H460 NSCLC = tested on: NCI-H460 NSCLC
NCI-H522 lung = tested on: NCI-H522 lung
NCI/ADR-RES ovarian = tested on: NCI/ADR-RES ovarian
OVCAR-3 ovarian = tested on: OVCAR-3 ovarian
OVCAR-4 ovarian = tested on: OVCAR-4 ovarian
OVCAR-5 ovarian = tested on: OVCAR-5 ovarian
OVCAR-8 ovarian = tested on: OVCAR-8 ovarian
PC-3 prostate = tested on: PC-3 prostate
RPMI-8226 leukemia = tested on: RPMI-8226 leukemia
RXF 393 renal = tested on: RXF 393 renal
SF-268 CNS = tested on: SF-268 CNS
SF-295 CNS = tested on: SF-295 CNS
SF-539 CNS = tested on: SF-539 CNS
SK-MEL-2 melanoma = tested on: SK-MEL-2 melanoma
SK-MEL-28 melanoma = tested on: SK-MEL-28 melanoma
SK-MEL-5 melanoma = tested on: SK-MEL-5 melanoma
SK-OV-3 ovarian = tested on: SK-OV-3 ovarian
SN12C renal = tested on: SN12C renal
SNB-19 CNS = tested on: SNB-19 CNS
SNB-75 CNS = tested on: SNB-75 CNS
SR leukemia = tested on: SR leukemia
SW-620 colon = tested on: SW-620 colon
T-47D breast = tested on: T-47D breast
TK-10 renal = tested on: TK-10 renal
U251 glioblastoma = tested on: U251 glioblastoma
UACC-257 melanoma = tested on: UACC-257 melanoma
UACC-62 melanoma = tested on: UACC-62 melanoma

O=c1[nH]c(C2CCCN2)nc2c1oc1ccc(Cl)cc12 (configuration not stated)
GI50 (786-0 renal): > 100 µM
TGI (786-0 renal): > 100 µM
GI50 (A498 renal): 58.5 µM
TGI (A498 renal): > 100 µM
GI50 (A549 NSCLC): > 100 µM
TGI (A549 NSCLC): > 100 µM
GI50 (ACHN renal): > 100 µM
TGI (ACHN renal): > 100 µM
GI50 (BT-549 breast): 29.3 µM
TGI (BT-549 breast): 78.4 µM
GI50 (CAKI-1 renal): 57 µM
TGI (CAKI-1 renal): > 100 µM
GI50 (CCRF-CEM leukemia): 18.2 µM
TGI (CCRF-CEM leukemia): 37.8 µM
GI50 (COLO 205 colon): 31.2 µM
TGI (COLO 205 colon): 83 µM
GI50 (DU-145 prostate): > 100 µM
TGI (DU-145 prostate): > 100 µM
GI50 (EKVX NSCLC): 85 µM
TGI (EKVX NSCLC): > 100 µM
GI50 (HCC-2998 colon): > 100 µM
TGI (HCC-2998 colon): > 100 µM
GI50 (HCT-15 colon): > 100 µM
TGI (HCT-15 colon): > 100 µM
GI50 (HL-60(TB) leukemia): 29.8 µM
TGI (HL-60(TB) leukemia): > 100 µM
GI50 (HOP-62 NSCLC): > 100 µM
TGI (HOP-62 NSCLC): > 100 µM
GI50 (HOP-92 NSCLC): 65.3 µM
TGI (HOP-92 NSCLC): > 100 µM
GI50 (HS 578T breast): > 100 µM
TGI (HS 578T breast): > 100 µM
GI50 (HT29 colon): > 100 µM
TGI (HT29 colon): > 100 µM
GI50 (IGROV1 ovarian): > 100 µM
TGI (IGROV1 ovarian): > 100 µM
GI50 (KM12 colon): > 100 µM
TGI (KM12 colon): > 100 µM
GI50 (M14 melanoma): 62.8 µM
TGI (M14 melanoma): > 100 µM
GI50 (MALME-3M melanoma): 14.8 µM
TGI (MALME-3M melanoma): > 100 µM
GI50 (MCF7 breast): > 100 µM
TGI (MCF7 breast): > 100 µM
GI50 (MDA-MB-231 breast): 99.5 µM
TGI (MDA-MB-231 breast): > 100 µM
GI50 (MDA-MB-435 melanoma): > 100 µM
TGI (MDA-MB-435 melanoma): > 100 µM
GI50 (MDA-MB-468 breast): 21.2 µM
TGI (MDA-MB-468 breast): 56.7 µM
GI50 (MOLT-4 leukemia): 31 µM
TGI (MOLT-4 leukemia): > 100 µM
GI50 (NCI-H226 lung): 49.5 µM
TGI (NCI-H226 lung): > 100 µM
GI50 (NCI-H23 lung): > 100 µM
TGI (NCI-H23 lung): > 100 µM
GI50 (NCI-H322M lung): > 100 µM
TGI (NCI-H322M lung): > 100 µM
GI50 (NCI-H460 NSCLC): > 100 µM
TGI (NCI-H460 NSCLC): > 100 µM
GI50 (NCI-H522 lung): 14.4 µM
TGI (NCI-H522 lung): 31 µM
GI50 (NCI/ADR-RES ovarian): > 100 µM
TGI (NCI/ADR-RES ovarian): > 100 µM
GI50 (OVCAR-3 ovarian): > 100 µM
TGI (OVCAR-3 ovarian): > 100 µM
GI50 (OVCAR-4 ovarian): 81.8 µM
TGI (OVCAR-4 ovarian): > 100 µM
GI50 (OVCAR-5 ovarian): > 100 µM
TGI (OVCAR-5 ovarian): > 100 µM
GI50 (OVCAR-8 ovarian): > 100 µM
TGI (OVCAR-8 ovarian): > 100 µM
GI50 (PC-3 prostate): > 100 µM
TGI (PC-3 prostate): > 100 µM
GI50 (RPMI-8226 leukemia): > 100 µM
TGI (RPMI-8226 leukemia): > 100 µM
GI50 (RXF 393 renal): 21 µM
TGI (RXF 393 renal): 43.1 µM
GI50 (SF-268 CNS): > 100 µM
TGI (SF-268 CNS): > 100 µM
GI50 (SF-295 CNS): > 100 µM
TGI (SF-295 CNS): > 100 µM
GI50 (SF-539 CNS): 53.6 µM
TGI (SF-539 CNS): > 100 µM
GI50 (SK-MEL-2 melanoma): > 100 µM
TGI (SK-MEL-2 melanoma): > 100 µM
GI50 (SK-MEL-28 melanoma): > 100 µM
TGI (SK-MEL-28 melanoma): > 100 µM
GI50 (SK-MEL-5 melanoma): 36.2 µM
TGI (SK-MEL-5 melanoma): > 100 µM
GI50 (SK-OV-3 ovarian): > 100 µM
TGI (SK-OV-3 ovarian): > 100 µM
GI50 (SN12C renal): > 100 µM
TGI (SN12C renal): > 100 µM
GI50 (SNB-19 CNS): > 100 µM
TGI (SNB-19 CNS): > 100 µM
GI50 (SNB-75 CNS): 38.1 µM
TGI (SNB-75 CNS): > 100 µM
GI50 (SR leukemia): 37.3 µM
TGI (SR leukemia): > 100 µM
GI50 (SW-620 colon): > 100 µM
TGI (SW-620 colon): > 100 µM
GI50 (T-47D breast): 19 µM
TGI (T-47D breast): 35 µM
GI50 (TK-10 renal): > 100 µM
TGI (TK-10 renal): > 100 µM
GI50 (U251 glioblastoma): > 100 µM
TGI (U251 glioblastoma): > 100 µM
GI50 (UACC-257 melanoma): > 100 µM
TGI (UACC-257 melanoma): > 100 µM
GI50 (UACC-62 melanoma): > 100 µM
TGI (UACC-62 melanoma): > 100 µM
